The record followed here is patent US20040022734A1, “Dihydroporphyrin derivatives and their uses” (priority 2000, published 2004).

The subject of data set [1] is C6 cells. The data set is described as follows: Phototoxicity of SIMO1 on C6 cells (laser irradiation, MTT count). The data set is classed as cell-based. The note with it: 20 joules/cm^2 diode laser. As to the method:
C6 cells were cultured in flasks of 25 cm^2 (Polylabo, Strasbourg, France) in an RPMI medium supplemented with 10% (V/V) of fetal calf serum (FCS), 100 units of penicillin mL^−1, […] of streptomycin and 2 mM of glutamine.
The cells were replicated by dispersion culturing with 0.025% of trypsin in 0.02% ethylene-diaminotetracetic acid (EDTA) for a contact time of 2 minutes and returned to adhere at a dilution of 1:3, which maintain the cells in the exponential phase of growth. The cells were verified on a regular basis by contamination of the mycoplasms.
The cells thus cultivated were subjected to a photodynamic treatment. Aliquots (11 μl) of the photosensitizing solution SIMO1 were added to C6 cells adhered in wells of plates with 96 wells after trypsonation, as described above. The cellular concentration was 5.10^4 cells/ml^−1 (100 μl per well). The final concentration of the solutions of SIMO1 was comprised within the range of 0.5 to 50 μg/ml. Immediately after addition of the photosensitizer SIMO1, the plates of cells were held in complete darkness till the time of counting, except for a laser irradiation of the cells treated with PDT. The fresh medium containing FCS but free from photosensitizer was prepared before laser irradiation. […]
The optical density of each well of the microplates was then read at 570 nm by means of a Uniskan Titertack (Flow Laboratories, Puteaux, France). […]

Data set [2] relates to C6 cells. The data set is described as follows: Intracellular localization and pharmacokinetics in C6 cells by fluorescent imaging. The class given is cell-based. The note with it: FIG. 3; for Incorporation at one hour of incubation (intracellular fluorescence): 1 hour. As to the method:
So as to confirm the potential use of the mentioned compounds for the production of a photosensitive composition administrable to a living creature and useful as an agent adapted to give rise, under the influence of irradiation, to cytolysis or necrosis at least partially of at least one target region of the human or animal body, a visualization was conducted of the localization in vitro of the SIMO1 molecule, as well as the determination of the pharmacokinetics compared to m-THPC, by fluorescent imaging so as to confirm that the mentioned compounds were capable of penetrating the cells. Thus, C6 cells were seeded at a rate of 10^5 cells/ml on circular glass plates after trypsinization. After 24 hours, cells were incubated with SIMO1 (10 μg/ml) at 37° C. for 3 hours and then washed with PBS (pH 7.2). Fluorescence analysis of SIMO1 (emitting at 650 nm) was carried out after excitation of 450 nm to 480 nm with a 150 watt Xenon lamp by using a black and white video camera with very sensitive detection of photons (Kappa CF 8/4; Fischer Scientific S.A., France), connected to an optical microscope (Olympus BX 40, France) provided with an oil immersion objective magnifying 100 times.

Data set [3] relates to cellular tumor HT29 obtained initially from human colorectal adenocarcinoma. The data set is described as follows: In vivo phototoxicity: growth of HT29 tumor grafts in nude mice after injection and laser irradiation. The note with it: for Activity on tumor growth, SIMO1 versus m-THPC: 2 mg/kg intra-peritoneal, irradiation 6 hours and 12 hours after injection, FIG. 5. As to the method: To establish these conclusions, the following procedure was used: Swiss male nude/nude mice aged 7 to 9 weeks (weight range 25-35 g) were obtained from Iffa-Credo (L'arbresle, France).
The test method is that of the cellular tumor HT29 obtained initially from human colorectal adenocarcinoma.
The tumor grafts were obtained as follows: nonnecrotic solid tumor tissues (diameter 1 to 2 cm) were removed immediately after death of the donor mouse and then mechanically crushed in 1 ml of a 0.9% saline solution. This solution (0.2 ml) was injected sub-cutaneously into the rear paw of each mouse. This tumor was used one week later, when its diameter was 18-20 mm. […] The wavelength was illumination was selected between 652-653 nm.
The light source was a diode laser at 652 nm.
The luminous density was maintained below 0.3 W.cm^−2, at doses at which the thermal effects are indetectable. A single irradiation was carried out and the time of exposure was calculated as a function of the diameter of the tumor to obtain an energy density of 300 J/cm^−2 at a predetermined constant light density.
Each day, the index of tumor growth was measured by using a slide foot, the principal orthogonal diameters being added and divided by a factor of 2.
A statistical characteristic of the growth index between treated and control mice (without light or SIMO1) was carried by using the Student test.

In data set [4] the test system is C6 cells. The experiment in a line: Toxicity of SIMO1 on non-irradiated C6 cells (MTT count). The class given is cell-based. As to the method:
C6 cells were cultured in flasks of 25 cm^2 (Polylabo, Strasbourg, France) in an RPMI medium supplemented with 10% (V/V) of fetal calf serum (FCS), 100 units of penicillin mL^-1, […] of streptomycin and 2 mM of glutamine. The cells were replicated by dispersion culturing with 0.025% of trypsin in 0.02% ethylene-diaminotetracetic acid (EDTA) for a contact time of 2 minutes and returned to adhere at a dilution of 1:3, which maintain the cells in the exponential phase of growth. The cells were verified on a regular basis by contamination of the mycoplasms. The cells thus cultivated were subjected to a photodynamic treatment. Aliquots (11 μl) of the photosensitizing solution SIMO1 were added to C6 cells adhered in wells of plates with 96 wells after trypsonation, as described above. The cellular concentration was 5.10^4 cells/ml^-1 (100 μl per well). The final concentration of the solutions of SIMO1 was comprised within the range of 0.5 to 50 μg/ml. Immediately after addition of the photosensitizer SIMO1, the plates of cells were held in complete darkness till the time of counting, except for a laser irradiation of the cells treated with PDT. The fresh medium containing FCS but free from photosensitizer was prepared before laser irradiation. A laser with a diode at 650 nm was used. The power of the end of the fiber was adjusted, by using a device for measuring power (Coherent, France), at 500 mW. The light was transmitted to the target by an optical fiber at a distance of 20 mm so as to irradiate the cells in the wells 6 mm in diameter within a single field providing an illumination of all of the region. The time of exposure was 13 seconds per well at 650 nm, supplying an energy density of 20 J/cm^2. The cells were incubated with SIMO1 for 5 or 20 hours. For phototoxicity tests, the cells were washed and the medium was replaced immediately before laser irradiation. […] The optical density of each well of the microplates was then read at 570 nm by means of a […] […]

The nature of data set [5]: In vivo spectrofluorimetric measurement of incorporation and retention in muscle, skin and tumor of mice grafted with HT-29. The settings on record: 2 mg/kg. As to the method:
For these tests, the following was the procedure: spectrofluorimetric measurements were carried out on mice grafted with HT-29 at different intervals of time after injection of 2 mg/kg^−1 of m-THPC or SIMO1. The tested times were 3, 6, 12, 24, 48 and 144 hours on mice.
The level of fluorescence were recorded in different tissues, namely the muscle, the skin and the tumor. The measurements were taken by using an optical fiber placed directly in contact with the tissues. At least four spectra per tissue and per mouse were recorded (at least five mice were used for each experimental condition). Muscle, skin and tumor were successively studied.
The emission spectra of fluorescence of untreated mice tissue were recorded at three separate times so as to estimate the intermouse variations. The values of fluorescent intensity mentioned in FIG. 6 correspond for each organ to the result of the difference between the value of fluorescence obtained in a treated mouse and the value of fluorescence recorded in the control group. The results of spectrofluorometric measurement in vivo were expressed in beats per second (arbitrary unit).

In the case of “2,3-dihydro-5, 15-Bis(3,5-dihydroxy-1-phenyl)-prohyrin [SIMO1]”, the “DL50, phototoxic treatment” value in the data set with C6 cells [1] (5 hours of incubation) amounted to 1.75 µg/mL. For the same compound, in the data set on C6 cells [1] (20 hours of incubation), the “DL50, phototoxic treatment” value turned out to be 0.45 µg/mL. Also, in the data set on C6 cells [2], the “Incorporation at one hour of incubation (intracellular fluorescence)” value is recorded as “high incorporation” and the “Time of maximum intracellular concentration (fluorescence) after incubation” value worked out at 3 h. Further, the “Activity on tumor growth, SIMO1 versus m-THPC” value in data set [3] is “comparable activity”. In data set [3] (5 mg/kg intra-peritoneal, 300 J/cm^2, FIG. 4), the “Retardation between intra-peritoneal injection and laser irradiation giving the most marked effects” value was determined as 12 h. In addition, the “Slowing of growth of the tumor” value in data set [3] (HT-29 grafted nude mice, 5 mg/kg intra-peritoneal, 12 hours between injection and irradiation, 300 J/cm^2 at 652 nm, twelve days after treatment) is listed as 40%. Moreover, in data set [3] (all tested conditions: irradiation 2, 6, 12, 24, 48 hours after 5 mg/kg intra-peritoneal, 300 J/cm^2), the “Growth of the tumor compared to the untreated control group” value is “reduction of growth of the tumor”. In addition, the “DL50, toxicity (non-irradiated)” value in the data set with C6 cells [4] came to 29 µg/mL. The “SIMO1 toxicity (non-irradiated)” value in the data set on C6 cells [4] (C6 cells, 5 hours of incubation, no irradiation) is on record as “no toxicity was detected”. The “Concentration short of which harmless in the absence of luminous irradiation” value with C6 cells [4] (C6 cells, no irradiation) is given as “about 20 μg/ml”. Further, the “Detection of photosensitive agent in tissues after 48 hours” value in data set [5] (48 hours after injection) was “no photosensitive agent was detected”. Moreover, the “Retention time in all the tissues compared to m-THPC” value in data set [5] (muscle, skin and tumor, FIG. 6) is “shorter”.
With `Oc1cccc(-c2c3nc(c(-c4cccc(O)c4)c4ccc([nH]4)c(-c4cccc(O)c4)c4nc(c(-c5cccc(O)c5)c5ccc2[nH]5)CC4)C=C3)c1` [m-THPC, reference compound], in the data set with C6 cells [2], the “Incorporation at one hour of incubation (intracellular fluorescence)” value is on record as “small incorporation” and the “Time of maximum intracellular concentration (fluorescence) after incubation” value is recorded as “increases to 6 hours”. Further, the “Activity on tumor growth, SIMO1 versus m-THPC” value in data set [3] was “comparable activity”. Further, the “Detection of photosensitive agent in tissues 144 hours after injection” value in data set [5] (144 hours after injection) is “still detectable”.
